{"source": "patent US20070259952A1", "about": "(H. LUNDBECK A/S, priority 2006, published 2007)", "key": {"[1]": {"test_system": "dopamine cells in the VTA", "assay": "In vivo assessment of dopamine neuron firing in rat ventral tegmental area", "procedure": "In vivo assessment of dopamine neuron firing in rat ventral tegmental area was conducted as described by Schilstrom et al. (Neuroscience 125:957-64, 2004). Briefly, male Sprague Dawley rats (250-300 g) were anesthetized with chloral hydrate (400 mg/kg i.p.) and mounted in a stereotactic frame. Anesthesia was maintained throughout the experiment with periodical injections of chloral hydrate and body temperature was kept at 37° C. with a rectal thermometer connected to an electrical heating pad. Recording electrodes were pulled in a Narishige vertical puller from borosilicate glass capillaries with outer and inner diameters of 1.50 and 1.17 mm, respectively, and filled with 2% Pontamine Sky Blue in 2 M NaCl. […] The rat was killed with an overdose of anesthetic, and the brain was removed and placed in 25% sucrose 10% paraformaldehyde solution. Sections of the VTA were cut ([…]) and stained with Neutral Red and the recording sites were verified by light microscopy."}, "[2]": {"test_system": "mesocorticolimbic dopaminergic neurons in the VTA", "conditions": "cited from earlier work; for firing rate of mesocorticolimbic dopaminergic neurons in the VTA: Prisco and Eposito 1995, Di Masico et al 1998"}, "[3]": {"test_system": "NMDA-induced currents in pyramidal cells of the medial prefrontal cortex", "assay": "Facilitation of NMDA-induced currents in pyramidal cells of the medial prefrontal cortex in vitro (brain slices, voltage-clamp)", "type": "cell-based, rat"}}, "note": "Like-named read-outs stand apart in the source and are kept apart here.", "data": [{"smiles": "CN(C)CCCC1(c2ccc(F)cc2)OCc2cc(C#N)ccc21", "note": "(racemic) [citalopram]", "values": [{"measurement": "Emax", "setting": "[1]; Rattus norvegicus, Neuron, FIG. 2, read-out: maximal response, burst difference", "value": "~10", "unit": "%"}]}, {"smiles": "CN(C)CCC[C@]1(c2ccc(F)cc2)OCc2cc(C#N)ccc21", "note": "[R-citalopram]", "values": [{"measurement": "effect on the escitalopram-induced increase of burst firing", "setting": "[1]; 320 μg/kg with escitalopram 320 μg/kg, FIG. 2", "value": "significantly inhibits the effect of escitalopram"}, {"measurement": "effect on firing rate of dopamine cells in the VTA", "setting": "[1]; given alone, dose not stated, FIG. 1", "value": "unaffected"}, {"measurement": "effect on burst firing of dopaminergic cells in the VTA", "setting": "[1]; given alone, FIG. 2", "value": "no effect on burst firing"}, {"measurement": "effect on the escitalopram-induced increase of firing rate", "setting": "[1]; pre-treatment with 320 μg/kg before escitalopram 320 μg/kg, FIG. 1", "value": "blocked"}]}, {"smiles": "CN(C)CCC[C@@]1(c2ccc(F)cc2)OCc2cc(C#N)ccc21", "note": "[escitalopram, (S)-1-[3-(dimethylamino)propyl]-1-(4-fluorophenyl)-1,3-dihydro-5-isobenzofurancarbonitrile]", "values": [{"measurement": "effect on firing rate of dopamine cells in the VTA", "setting": "[1]; 320 μg/kg, FIG. 1", "value": "elevates firing rate statistically significant"}, {"measurement": "effect on burst firing of dopaminergic cells in the VTA", "setting": "[1]; doses equal to and above 160 μg/kg, FIG. 2", "value": "increases burst firing statistically significant dose-dependently"}, {"measurement": "effect on firing rate of dopamine cells in the VTA", "setting": "[1]; higher dose 640 μg/kg, FIG. 1", "value": "appears to be maintained"}, {"measurement": "burst difference", "setting": "[1]; highest dose tested 640 μg/kg, FIG. 2", "value": "about 20%"}]}, {"smiles": "CNCCC(Oc1ccc(C(F)(F)F)cc1)c1ccccc1", "note": "(stereo not shown) [fluoxetine]", "values": [{"measurement": "firing rate of mesocorticolimbic dopaminergic neurons in the VTA", "setting": "[2]", "value": "slight inhibition"}]}, {"smiles": "COCCCC/C(=N\\OCCN)c1ccc(C(F)(F)F)cc1", "note": "[fluvoxamine]", "values": [{"measurement": "firing rate of mesocorticolimbic dopaminergic neurons in the VTA", "setting": "[2]", "value": "slight inhibition"}]}, {"smiles": "Fc1ccc([C@@H]2CCNC[C@H]2COc2ccc3c(c2)OCO3)cc1", "note": "[paroxetine]", "values": [{"measurement": "firing rate of mesocorticolimbic dopaminergic neurons in the VTA", "setting": "[2]", "value": "slight inhibition"}]}, {"smiles": "CCOc1ccccc1OC(c1ccccc1)C1CNCCO1", "note": "(stereo not shown) [reboxetine]", "values": [{"measurement": "effect on NMDA-induced currents in pyramidal cells of the prefrontal cortex", "setting": "[3]", "value": "increases NMDA-induced currents"}, {"measurement": "excitability and burst firing of dopaminergic neurons in the VTA", "setting": "[2]; Linner et al, 2001", "value": "enhances the excitability of dopaminergic neurons in the VTA with a preferential activation of their burst firing mode"}]}, {"smiles": "Cc1nc2n(c(=O)c1CCN1CCC(c3noc4cc(F)ccc34)CC1)CCCC2", "note": "[risperidone]", "values": [{"measurement": "effect on NMDA-induced currents in pyramidal cells of the prefrontal cortex", "setting": "[3]; bath application, holding potential −60 mV, FIG. 3", "value": "increase NMDA-induced currents"}]}, {"smiles": "CN[C@H]1CC[C@@H](c2ccc(Cl)c(Cl)c2)c2ccccc21", "note": "[sertraline]", "values": [{"measurement": "firing rate of mesocorticolimbic dopaminergic neurons in the VTA", "setting": "[2]", "value": "slight inhibition"}]}]}
